Experimental data taken from PubChem BioAssay (NCI).
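Dose response: 5 concentrations. Exposure: 48 h. Format: 96-well plates. Endpoint: linear interpolation; highest concentration if not reached. TGI marks complete inhibition of growth.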

Columns and labels:
Assay in all cases: inhibition of tumour cell growth, NCI panel, 48 h
[1] = tested on: HL-60(TB) leukemia
[2] = tested on: DLD-1 colon
[3] = tested on: SNB-19 CNS
[4] = tested on: SW-620 colon
[5] = tested on: HCT-116 colon
[6] = tested on: MOLT-4 leukemia
[7] = tested on: LOX IMVI melanoma
[8] = tested on: OVCAR-4 ovarian
[9] = tested on: A498 renal
[10] = tested on: NCI-H460 lung
[11] = tested on: UACC-62 melanoma
[12] = tested on: SK-MEL-5 melanoma
[13] = tested on: SF-268 CNS
[14] = tested on: KM20L2 colon
[15] = tested on: M14 melanoma
[16] = tested on: HT29 colon
[17] = tested on: UO-31 renal
[18] = tested on: M19-MEL melanoma
[19] = tested on: KM12 colon
[20] = tested on: HCC-2998 colon
[21] = tested on: IGROV1 ovarian
[22] = tested on: CCRF-CEM leukemia
[23] = tested on: K-562 leukemia
[24] = tested on: SNB-75 CNS
[25] = tested on: HOP-92 NSCLC
[26] = tested on: LXFL 529 NSCLC
[27] = tested on: SN12C renal
[28] = tested on: NCI-H522 lung
[29] = tested on: ACHN renal
[30] = tested on: RPMI-8226 leukemia
[31] = tested on: A549 NSCLC
[32] = tested on: SF-295 CNS
[33] = tested on: XF 498 CNS
[34] = tested on: NCI-H226 lung
[35] = tested on: SK-MEL-2 melanoma
[36] = tested on: OVCAR-5 ovarian
[37] = tested on: OVCAR-3 ovarian
[38] = tested on: HOP-62 NSCLC
[39] = tested on: OVCAR-8 ovarian
[40] = tested on: HCT-15 colon
[41] = tested on: RXF-631 renal
[42] = tested on: 786-0 renal
[43] = tested on: UACC-257 melanoma
[44] = tested on: MALME-3M melanoma
[45] = tested on: DMS 114 small cell lung
[46] = tested on: CAKI-1 renal
[47] = tested on: COLO 205 colon
[48] = tested on: SK-OV-3 ovarian
[49] = tested on: SF-539 CNS
[50] = tested on: NCI-H23 lung
[51] = tested on: HOP-18 NSCLC
[52] = tested on: DMS 273 small cell lung
[53] = tested on: TK-10 renal
[54] = tested on: U251 CNS
[55] = tested on: RXF 393 renal
[56] = tested on: SK-MEL-28 melanoma
[57] = tested on: EKVX NSCLC

O=CC[C@H]1CCc2ccccc2C12CCC(=O)CC2
TGI [1]: 65.8 µM
TGI [2]: > 100 µM
TGI [3]: > 100 µM
TGI [4]: > 100 µM
TGI [5]: > 100 µM
TGI [6]: > 100 µM
TGI [7]: > 100 µM
TGI [8]: > 100 µM
TGI [9]: > 100 µM
TGI [10]: > 100 µM
TGI [11]: > 100 µM
TGI [12]: > 100 µM
TGI [13]: > 100 µM
TGI [14]: > 100 µM
TGI [15]: > 100 µM
TGI [16]: > 100 µM
TGI [17]: > 100 µM
TGI [18]: > 100 µM
TGI [19]: > 100 µM
TGI [20]: > 100 µM
TGI [21]: > 100 µM
TGI [22]: > 100 µM
TGI [23]: > 100 µM
TGI [24]: > 100 µM
TGI [25]: > 100 µM
TGI [26]: > 100 µM
TGI [27]: > 100 µM
TGI [28]: > 100 µM
TGI [29]: > 100 µM
TGI [30]: > 100 µM
TGI [31]: > 100 µM
TGI [32]: > 100 µM
TGI [33]: > 100 µM
TGI [34]: > 100 µM
TGI [35]: > 100 µM
TGI [36]: > 100 µM
TGI [37]: > 100 µM
TGI [38]: > 100 µM
TGI [39]: > 100 µM
TGI [40]: > 100 µM
TGI [41]: > 100 µM
TGI [42]: > 100 µM
TGI [43]: > 100 µM
TGI [44]: > 100 µM
TGI [45]: > 100 µM
TGI [46]: > 100 µM
TGI [47]: > 100 µM
TGI [48]: > 100 µM
TGI [49]: > 100 µM

O=C(Cn1ccnc1[N+](=O)[O-])c1ccc(F)cc1
TGI [50]: > 100 µM
TGI [1]: > 100 µM
TGI [3]: > 100 µM
TGI [4]: > 100 µM
TGI [6]: > 100 µM
TGI [7]: > 100 µM
TGI [8]: > 100 µM
TGI [9]: > 100 µM
TGI [10]: > 100 µM
TGI [11]: > 100 µM
TGI [12]: > 100 µM
TGI [51]: > 100 µM
TGI [13]: > 100 µM
TGI [52]: > 100 µM
TGI [14]: > 100 µM
TGI [15]: > 100 µM
TGI [16]: > 100 µM
TGI [17]: > 100 µM
TGI [18]: > 100 µM
TGI [19]: > 100 µM
TGI [21]: > 100 µM
TGI [22]: > 100 µM
TGI [23]: > 100 µM
TGI [24]: > 100 µM
TGI [25]: > 100 µM
TGI [26]: > 100 µM
TGI [53]: > 100 µM
TGI [27]: > 100 µM
TGI [28]: > 100 µM
TGI [29]: > 100 µM
TGI [30]: > 100 µM
TGI [31]: > 100 µM
TGI [32]: > 100 µM
TGI [54]: > 100 µM
TGI [33]: > 100 µM
TGI [34]: > 100 µM
TGI [35]: > 100 µM
TGI [36]: > 100 µM
TGI [37]: > 100 µM
TGI [38]: > 100 µM
TGI [39]: > 100 µM
TGI [40]: > 100 µM
TGI [55]: > 100 µM
TGI [42]: > 100 µM
TGI [56]: > 100 µM
TGI [43]: > 100 µM
TGI [44]: > 100 µM
TGI [45]: > 100 µM
TGI [46]: > 100 µM
TGI [47]: > 100 µM
TGI [48]: > 100 µM
TGI [49]: > 100 µM
TGI [57]: > 100 µM
